Data reported in US10450316B2, “Certain protein kinase inhibitor” (Chongqing Fochon Pharmaceutical Co., Ltd., priority 2015, dated 2019).

Test system: BE(2)-C cell
Assay: Cell proliferation assay (MTS) in BE(2)-C cells
Type: cell-based
Conditions: Homo sapiens, inhibition of BE(2)-C cell proliferation, 48 h
Experimental: MTS testing kit was purchased from Promega. The DMEM, Fetal bovine serum and Penicillin-Streptomycin were purchased from Gibco. Dimethyl sulfoxide (DMSO) was purchased from Sigma.
To investigate whether a compound is able to inhibit the activity of CDK4/6 in cells, mechanism-based assays using BE(2)-C cell (ATCC® number:CRL-2268) were developed. In the assay, inhibition of CDK4/6 was detected by the inhibition of BE(2)-C cell cells proliferation. BE(2)-C cell cells were cultured in culture flasks to 40-80% confluence in DMEM plus 10% fetal bovine serum. Cells were collected and plated onto 96-well plates at cell density of 3000 cells/well. Plates were incubated overnight at 37° C., with 5% CO2 to adhere. Compounds were added to the plates, the final compound concentrations were 10000, 3333, 1111, […], 123.5, 41.2, 13.7, 4.6 and 1.5 nM. Place plates at 37° C., with 5% CO2 for 48 h. After removing the medium, 20 μl MTS/100 μl medium mixture solution were added to each well and incubate the plates for exactly 2 hours. The reaction was terminated by adding 25 μl 10% SDS per well. Measure absorbance at 490 nm and 650 nm (reference wavelength). IC50 was calculated using GraphPad Prism 5.0.
Select compounds prepared as described above were assayed according to the biological procedures described herein. “++++” stands for IC50 value below about 10 nM. “+++” stands for IC50 value between greater than about 10 nM to about 100 nM. “++” stands for IC50 value between greater than about 100 nM to about […]. “+” stands for IC50 value greater than 1 μM.

| SMILES | IC50 |
| --- | --- |
| CC1CCc2nc3c(F)cc(-c4nc(Nc5ccc(CN6CCNCC6)cn5)ncc4F)cc3n21 (stereo in doubt) [Example 155, (R)-5-fluoro-4-(5-fluoro-1-methyl-2,3-dihydro-1H-benzo[d]pyrrolo[1,2-a]imidazol-7-yl)-N-(5-(piperazin-1-ylmethyl)pyridin-2-yl)pyrimidin-2-amine] | > 100 nM |
| OC[C@@H]1CCc2nc3c(F)cc(-c4nc(Nc5ccc(CN6CCNCC6)cn5)ncc4F)cc3n21 [Example 1, (S)-(5-fluoro-7-(5-fluoro-2-((5-(piperazin-1-ylmethyl)pyridin-2-yl)amino)pyrimidin-4-yl)-2,3-dihydro-1H-benzo[d]pyrrolo[1,2-a]imidazol-1-yl)methanol] | > 1000 nM |
| CN1CCN(Cc2ccc(Nc3ncc(F)c(-c4cc(F)c5nc6n(c5c4)[C@H](CO)CC6)n3)nc2)CC1 [Example 2, (S)-(5-fluoro-7-(5-fluoro-2-((5-((4-methylpiperazin-1-yl)methyl)pyridin-2-yl)amino)pyrimidin-4-yl)-2,3-dihydro-1H-benzo[d]pyrrolo[1,2-a]imidazol-1-yl)methanol] | > 100 nM |
| CCN1CCN(Cc2ccc(Nc3ncc(F)c(-c4cc(F)c5nc6n(c5c4)[C@H](CO)CC6)n3)nc2)CC1 [Example 3, (S)-(7-(2-((5-((4-ethylpiperazin-1-yl)methyl)pyridin-2-yl)amino)-5-fluoropyrimidin-4-yl)-5-fluoro-2,3-dihydro-1H-benzo[d]pyrrolo[1,2-a]imidazol-1-yl) methanol] | > 100 nM |
| FC[C@@H]1CCc2nc3c(F)cc(-c4nc(Nc5ccc(CN6CCNCC6)cn5)ncc4F)cc3n21 [Example 4, (S)-5-fluoro-4-(5-fluoro-1-(fluoromethyl)-2,3-dihydro-1H-benzo[d]pyrrolo[1,2-a]imidazol-7-yl)-N-(5-(piperazin-1-ylmethyl)pyridin-2-yl)pyrimidin-2-amine] | > 100 nM |
| CN1CCN(Cc2ccc(Nc3ncc(F)c(-c4cc(F)c5nc6n(c5c4)[C@H](CF)CC6)n3)nc2)CC1 [Example 5, (S)-5-fluoro-4-(5-fluoro-1-(fluoromethyl)-2,3-dihydro-1H-benzo[d]pyrrolo[1,2-a]imidazol-7-yl)-N-(5-((4-methylpiperazin-1-yl)methyl)pyridin-2-yl)pyrimidin-2-amine] | > 100 nM |
| CCN1CCN(Cc2ccc(Nc3ncc(F)c(-c4cc(F)c5nc6n(c5c4)[C@H](CF)CC6)n3)nc2)CC1 [Example 6, (S)—N-(5-((4-ethylpiperazin-1-yl)methyl)pyridin-2-yl)-5-fluoro-4-(5-fluoro-1-(fluoromethyl)-2,3-dihydro-1H-benzo[d]pyrrolo[1,2-a]imidazol-7-yl)pyrimidin-2-amine] | > 100 nM |
| COC[C@@H]1CCc2nc3c(F)cc(-c4nc(Nc5ccc(CN6CCNCC6)cn5)ncc4F)cc3n21 [Example 7, (S)-5-fluoro-4-(5-fluoro-1-(methoxymethyl)-2,3-dihydro-1H-benzo[d]pyrrolo[1,2-a]imidazol-7-yl)-N-(5-(piperazin-1-ylmethyl)pyridin-2-yl)pyrimidin-2-amine] | > 100 nM |
| COC[C@@H]1CCc2nc3c(F)cc(-c4nc(Nc5ccc(CN6CCN(C)CC6)cn5)ncc4F)cc3n21 [Example 8, (S)-5-fluoro-4-(5-fluoro-1-(methoxymethyl)-2,3-dihydro-1H-benzo[d]pyrrolo[1,2-a]imidazol-7-yl)-N-(5-((4-methylpiperazin-1-yl)methyl)pyridin-2-yl)pyrimidin-2-amine] | > 100 nM |
| CCN1CCN(Cc2ccc(Nc3ncc(F)c(-c4cc(F)c5nc6n(c5c4)[C@H](COC)CC6)n3)nc2)CC1 [Example 9, (S)—N-(5-((4-ethylpiperazin-1-yl)methyl)pyridin-2-yl)-5-fluoro-4-(5-fluoro-1-(methoxymethyl)-2,3-dihydro-1H-benzo[d]pyrrolo[1,2-a]imidazol-7-yl)pyrimidin-2-amine] | > 100 nM |
